The values below are quoted from earlier work in patent US20250127863A1, “ANTIMICROBIAL PEPTIDE FOR ONYCHOMYCOSIS” (CBMR SCIENTIFIC NANOSCIENCE B.V., priority 2019, published 2025).

The test system of series [1] is onychomycosis. The note with it: topical, specialist setting; after 48 weeks of treatment; cited from earlier work.
For series [2], the system named is onychomycosis. The note with it: systemic use; cited from earlier work.

`C=C1CCN([C@H](C)[C@](O)(Cn2cncn2)c2ccc(F)cc2F)CC1` [efinaconazole]: the cure rates in series [1] is given as 15.2-17.8%.
Take `CN(C/C=C/C#CC(C)(C)C)Cc1cccc2ccccc12` [terbinafine]: in series [2], the “(mycological) cure” value is recorded as 70.9%.
In the case of `Clc1ccc(C(Cn2ccnc2)OCc2ccsc2Cl)c(Cl)c1` (stereo not drawn) [tioconazole], the cure rates in series [1] was 22%.
